The subject of data set [1] is rat neonatal ventricular cardiomyocytes (NVCMs). Description: Angiotensin II-induced hypertrophy assay in NVCMs. In kind it is cell-based. Particulars: 200 nM Ang II 24 h; 10 μM FC9402. From the text: (§1) Rat neonatal ventricular cardiomyocytes (NVCMs) were isolated from the hearts of 1-2 day old Sprague-Dawley rats (Charles River) in 50-90% yield (70-95% viability) by following the protocol described by Golden et al. (Golden et al., 2012, in Cardiovascular Development. Methods in Molecular Biology (Methods and Protocols), vol 843 (Peng, X., Antonyak, M., Eds.) pp 205-214, Springer, Totowa, N.J.).
NVCMs are maintained in Dulbecco's modified Eagle's medium (DMEM:F12) containing 20% fetal bovine serum (FBS), 5% horse serum, 1× GlutaMAX, and 2 μg/mL insulin. For hypertrophy studies, cells were plated onto 4-well glass chamber slides, precoated with poly-D-lysine and laminin. The maintenance medium was aspirated after incubation for 72 h. The cells were serum-starved overnight in DMEM:F12 containing 1% FBS, 1× GlutaMAX, and 2 ug/mL insulin and then incubated for 24 h in fresh serum-starved medium containing angiotensin II, as indicated. […]

Data set [2] relates to mitochondrial CoQ-dependent respiratory complex I. Nature of the data set: Biochemical selectivity assay, respiratory complex I. More on the design: species or system mouse. Particulars: highest concentration tested 11 μM. The protocol: (§2) Inhibitor selectivity was assessed using mouse muscle homogenate preparations that contain disrupted mitochondrial membranes, a feature that makes substrates accessible to each of the membrane-bound respiratory complexes. Spectrophotometric assays for each complex are conducted in the presence or absence of a target-specific inhibitor (FIG. 9) to correct for nonspecific substrate oxidation, as previously described (Spinazzi et al., 2012, Nature Protocols 7: 1235-1246). Thus, the activity of complex I is determined by monitoring the oxidation of NADH in the absence or presence of rotenone. Complex III activity is measured based on the rate of cytochrome C reduction observed in the presence or absence of antimycin A. The reaction catalyzed by complex II produces decylubiquinol (decylCoQH2), which rapidly reduces DCIP.

Data set [3] concerns mitochondrial CoQ-dependent respiratory complex III. Description: Biochemical selectivity assay, respiratory complex III. Particulars: highest concentration tested 11 μM. Set-up: species or system mouse. The method, then:
as §2

Data set [4] is described as follows: Cell Counting Kit-8 cytotoxicity assay in NVCMs. Type of data set: cell-based. Particulars: Sprague-Dawley, rat, rat neonatal ventricular cardiomyocytes (NVCMs).
Excerpt: as §1
NVCMs are maintained in Dulbecco's modified Eagle's medium (DMEM:F12) containing 20% fetal bovine serum (FBS), 5% horse serum, 1× GlutaMAX, and 2 μg/mL insulin. For hypertrophy studies, cells were plated onto 4-well glass chamber slides, precoated with poly-D-lysine and laminin. The maintenance medium was aspirated after incubation for 72 h. The cells were serum-starved overnight in DMEM:F12 containing 1% FBS, 1× GlutaMAX, and 2 ug/mL insulin and then incubated for 24 h in fresh serum-starved medium containing angiotensin II, as indicated.
Cytotoxicity assays were conducted under the same conditions used for hypertrophy assays with NVCMs or H9C2 cells, as described elsewhere herein.

A word on the CC50: it is the concentration at which the toxic effect on the cells reaches its halfway point. Read a high CC50 as lower toxicity to the cells.

Structures are written as SMILES.

With `COc1nc(-c2ncccc2C)cc(-c2ccc(N)cc2)c1C#N` [FC9402, 4-(4-aminophenyl)-2-methoxy-6-(3-methylpyridin-2-yl)pyridine-3-carbonitrile], in data set [1], the “angiotensin II-induced hypertrophy (cell surface area)” value was “prevents angiotensin II-induced hypertrophy”. The “inhibition of respiratory complex I” value in data set [2] was “did not inhibit”. Also, in data set [3], the “inhibition of respiratory complex III” value is “did not inhibit”. In addition, the CC50 at 24 h in data set [4] stood at 27.9 ± 2.6 µM.
